Legend:
AhR gene battery = test: Rat liver mRNA profiling of the AhR gene battery; type: in vivo; conditions: 5 days
Description: All animal experiments were conducted in accordance with the Guiding Principles in the Use of Animals in Toxicology (http://www.toxicology.org/ai/air/air6.asp) and were approved by Abbott's Institutional Animal Care and Use Committee (IACUC). Male Sprague-Dawley rats [Crl:CD®(SD)IGS BR], weighing ~250 g at study initiation were obtained from Charles River Laboratories, Inc. (Wilmington, MA). Rats were housed singly in ventilated, stainless steel, wire-bottom hanging cages and fed non-certified Rodent Chow (Harlan Labs, Madison, WI), and water ad libitum and acclimated for at least 5 days after arrival. […] Serum clinical chemistry parameters were quantified using an Aeroset Clinical Chemistry Analyzer (Abbott Laboratories, Abbott Park, IL) and included alanine amino transferase (ALT), aspartate amino transferase (AST), gamma glutamyltransferase (GGT), and alkaline phosphatase (ALP) activities.
Frozen liver or jejunum were immediately added to 4 ml of TRIzol reagent (Invitrogen Life Technologies) and homogenized using a Polytron 300D homogenizer (Brinkman Instruments, Westbury, NY). […] Nucleic acid concentration was determined by OD 260 nm (Smart-Spec, Bio-Rad Laboratories, Hercules, CA), and RNA integrity was evaluated using an Agilent 2100 bioanalyzer (Agilent Technologies, Foster City, CA). […]

rat Cyp 2A2 = target: T1, rat Cyp 2A2 (Rattus norvegicus, UniProt P15149); test: Recombinant rat Cyp phenotype profiling, 2A2; type: in vitro ADME; conditions: 60 min
T1 construct: purchased BD Gentest; host or cells: baculovirus infected insect cells
T1 sequence (P15149 whole entry): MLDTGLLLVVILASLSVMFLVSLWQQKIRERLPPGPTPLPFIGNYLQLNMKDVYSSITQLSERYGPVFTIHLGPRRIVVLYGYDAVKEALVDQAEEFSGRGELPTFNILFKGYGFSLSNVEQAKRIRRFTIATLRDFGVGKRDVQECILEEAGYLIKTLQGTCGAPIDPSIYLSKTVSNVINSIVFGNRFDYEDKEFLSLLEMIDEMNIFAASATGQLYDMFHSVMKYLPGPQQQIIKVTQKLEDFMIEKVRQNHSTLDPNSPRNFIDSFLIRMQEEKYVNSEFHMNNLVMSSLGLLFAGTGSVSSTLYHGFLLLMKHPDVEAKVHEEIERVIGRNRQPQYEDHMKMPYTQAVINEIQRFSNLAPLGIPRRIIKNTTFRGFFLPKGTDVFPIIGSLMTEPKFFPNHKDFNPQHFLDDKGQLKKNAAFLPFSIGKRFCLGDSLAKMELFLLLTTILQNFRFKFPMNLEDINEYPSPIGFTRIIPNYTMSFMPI
Description: (§1) Identification of the drug metabolizing enzymes (DMEs) of A-998679 was studied in cDNA expressed recombinant enzymes prepared from baculovirus infected insect cells over-expressing rat Cyp isoforms (BD Gentest, Woburn, MA) as listed in Table 2. Incubations were conducted in duplicate using Supersomes. The incubation mixture contained 100 pmol/ml of enzymes, except for Cyp1a1 (200 pmol/ml), 0.1 or 0.21 μM of [^3H]A-998679 in 100 mM phosphate buffer (pH 7.4). Reactions were initiated with the addition of NADPH at a final concentration of 1 mM and incubated at 37°C for 60 min. At the end of the incubation period, the incubations were terminated by the addition of acetonitrile/ethanol (50/50, v/v) solution. Insect control samples lacking expressed enzyme were used as negative control. The degree of metabolism of A-998679 was assessed by percent of parent remaining using the radio-HPLC method described below.
(§2) Radiolabeled components from the above assays were profiled following separation by HPLC with on line radioflow detector. The system consisted of an Agilent 1100 Series quaternary pump and autosampler connected to a Packard 500TR flow scintillation detector. The data were processed using the Radiomatic™ Flo-one® software v3.65. The scintillant (Perkin Elmer FLO-SCINT™ III) flow was maintained at 3 ml/min. […]

rat Cyp2c11 = target: T2, rat Cyp2c11 (Rattus norvegicus, UniProt P08683); test: Recombinant rat Cyp phenotype profiling, 2C11; type: in vitro ADME; conditions: 60 min
T2 construct: purchased BD Gentest; host or cells: baculovirus infected insect cells
T2 sequence (P08683 whole entry): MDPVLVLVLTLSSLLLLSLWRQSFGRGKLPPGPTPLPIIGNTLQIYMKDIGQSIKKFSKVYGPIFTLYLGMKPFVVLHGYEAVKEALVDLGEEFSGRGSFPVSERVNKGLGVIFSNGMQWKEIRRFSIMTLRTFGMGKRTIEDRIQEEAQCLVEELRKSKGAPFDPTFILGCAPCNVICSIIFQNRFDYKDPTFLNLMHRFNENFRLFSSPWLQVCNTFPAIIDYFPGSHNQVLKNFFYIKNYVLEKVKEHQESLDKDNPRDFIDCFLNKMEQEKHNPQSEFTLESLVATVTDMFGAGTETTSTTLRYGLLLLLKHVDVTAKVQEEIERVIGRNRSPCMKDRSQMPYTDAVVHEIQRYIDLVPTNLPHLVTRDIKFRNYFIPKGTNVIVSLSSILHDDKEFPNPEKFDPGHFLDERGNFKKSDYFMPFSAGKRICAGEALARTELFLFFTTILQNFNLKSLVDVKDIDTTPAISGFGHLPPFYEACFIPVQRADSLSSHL
Description: as §1, §2

rat Cyp 3A1 = target: T3, rat Cyp 3A1 (Rattus norvegicus, UniProt P04800); test: Recombinant rat Cyp phenotype profiling, 3A1; type: in vitro ADME; conditions: 60 min
T3 construct: purchased BD Gentest; host or cells: baculovirus infected insect cells
T3 sequence (P04800 whole entry): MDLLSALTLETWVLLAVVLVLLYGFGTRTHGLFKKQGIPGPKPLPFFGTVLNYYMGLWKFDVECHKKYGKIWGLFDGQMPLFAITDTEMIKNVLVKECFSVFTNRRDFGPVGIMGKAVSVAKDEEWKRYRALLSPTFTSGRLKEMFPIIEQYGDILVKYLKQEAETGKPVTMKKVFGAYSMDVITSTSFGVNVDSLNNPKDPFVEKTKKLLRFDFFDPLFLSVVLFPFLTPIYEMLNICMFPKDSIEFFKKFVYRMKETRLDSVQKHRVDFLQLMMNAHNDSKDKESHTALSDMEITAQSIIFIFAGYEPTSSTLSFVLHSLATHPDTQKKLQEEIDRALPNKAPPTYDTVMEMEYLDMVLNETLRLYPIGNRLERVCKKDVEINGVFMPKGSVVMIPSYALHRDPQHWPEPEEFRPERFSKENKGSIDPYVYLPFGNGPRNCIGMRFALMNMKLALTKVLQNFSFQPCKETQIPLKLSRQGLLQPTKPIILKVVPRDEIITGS
Description: as §1, §2

N#Cc1cccc(-c2noc(-c3cccnc3)n2)c1 [A-998679, 3-(5-pyridin-3-yl-1,2,4-oxadiazol-3-yl) benzonitrile]
expression of members of the AhR gene battery (Gst isoforms, Nqo1, Aldh, AhR) in rat liver (AhR gene battery): upregulated
% parent remaining (rat Cyp 2A2; recombinant rat Cyp 2A2, 0.10 μM): 90.2%
% parent remaining (rat Cyp 2A2; recombinant rat Cyp 2A2, 0.21 μM): 77.8%
% parent remaining (rat Cyp2c11; recombinant rat Cyp 2C11, 0.10 μM): 78.1%
% parent remaining (rat Cyp2c11; recombinant rat Cyp 2C11, 0.21 μM): 28.8%
% parent remaining (rat Cyp 3A1; recombinant rat Cyp 3A1, 0.10 μM): 93.9%
% parent remaining (rat Cyp 3A1; recombinant rat Cyp 3A1, 0.21 μM): 90.3%

Source: paper PMC3481155, “AhR activation underlies the CYP1A autoinduction by A-998679 in rats” (Frontiers in Genetics, 2012)
